According to patent US7235263B2, “Processes for controlling microbial organic compound production” (Kimberly-Clark Worldwide, Inc., priority 2001, dated 2007):

What was measured:
Assay type in all cases: cell-based
Proteus mirabilis = assay: Growth of aerobically cultivated Proteus mirabilis in urine:TSB, microtiter serial dilution, optical density; conditions: for optical density (bacterial cell growth): 48 hours at 37° C., aerobic
Protocol: Proteus mirabilis was cultured in TSB as described in Example 1 and transferred to a urine:TSB mixture (9:1) and incubated under aerobic conditions as described in Example 1. […] In a 96-well microtiter plate with a lid, 150 microliters of each 10% solution was introduced into the first and second columns of the wells. Using a multi-channel pipette, 150 microliters of urine:TSB mixture was introduced into each well except the first column. Beginning at the second column of wells, serial dilutions were made by removing 150 microliters from the second column and transferring it to the third column. The mixture was mixed by pipetting up and down three times. The serial dilutions continued across each column of the plate and, after column 11, 150 microliters was discarded leaving column 12 as the 0% solution. Each well was then inoculated with 1 microliter of Proteus mirabilis, except for the negative control rows. One to three drops of anti-fogging solution was place on the plate lids with a cotton applicator, and allowed to air dry. The mixtures were incubated for 48 hours at 37° C. under aerobic conditions. After incubation of the samples, each was analyzed for bacterial cell growth utilizing the optical density procedure as set forth in Example 1.

[1] = tested on: Proteus mirabilis (ATCC 29906); assay: Bacterial yield of facultatively grown Proteus mirabilis in urine:TSB (from optical density); conditions: Table 7; 10% (w/v) mannitol; facultative
Protocol: Proteus mirabilis (ATCC 29906) were recovered from frozen state by growing the appropriate bacterial coated MicroBank Bead (Pro Lab, Austin Tex.) in 10 mL trypticase soy broth (TSB, Difco, Ann Arbor, Mich.) in a 15 mL sterile loosely tightened screw capped conical tube overnight at 37° C. The tube was held stationary. (E. coli (ATCC 8739), utilized in Example 6 herein, was recovered using the same procedure described herein for Proteus mirabilis). Upon observation of turbidity, the bacterial suspension was checked for purity by isolation plate and Gram stain. Once determined that the isolate was Proteus mirabilis (or E. coli in Example 6), a colony from the isolation plate was transferred to 10 mL of TSB in a 15 mL sterile screw capped conical tube and incubated overnight at 37° C. under facultative conditions. Samples of bacterial suspension resulting from this overnight TSB culture were used to initiate all experiments utilizing Proteus mirabilis bacteria (or E. coli in Example 6).
(§1) Proteus mirabilis was taken from a TSB culture (described in (1) above) and grown under various conditions for use in the Examples. For bacteria to be grown under aerobic conditions, 50 microliters of Proteus mirabilis was taken from a TSB culture prepared as described above and inoculated into a 50 mL volume of a freshly made 9:1 (by volume) pooled adult female urine:TSB mixture into a 250 mL shake flask. This mixture was rotated at 250 rpm at 37° C. overnight to grow the bacteria. For bacteria to be grown under facultative conditions, 10 microliters of Proteus mirabilis was taken from a TSB culture prepared as described above and inoculated into a 10 mL volume of a freshly made 9:1 (by volume) pooled adult female urine:TSB mixture into a 15 mL tube. The tube was loosely fitted with a screw cap, and held stationary at 37° C. overnight to grow the bacteria. For bacteria to be grown under anaerobic conditions, 10 microliters of Proteus mirabilis was taken from a TSB culture prepared as described above and inoculated into a 10 mL volume of a freshly made 9:1 (by volume) pooled adult female urine:TSB mixture into a 15 mL conical tube. The tube was purged with nitrogen and a screw cap tightly closed, and then was held stationary overnight at 37° C. to grow the bacteria.
In this Example, five samples were prepared and analyzed to determine: (1) Bacterial Yield (CFU/mL) calculated from optical density; (3) Percent viability of EPIOCULAR; and (4) EPIOCULAR IL-8. The samples included: (1) Deionized Water; (2) A urine:TSB mixture (9:1 by volume) as described above; (3) A urine:TSB mixture containing Proteus mirabilis bacteria grown under aerobic conditions as described above; (4) A urine:TSB mixture containing Proteus mirabilis bacteria grown under facultative conditions as described above; and (5) A urine:TSB mixture containing Proteus mirabilis bacteria grown under anaerobic conditions as described above.
(§2) In this Example, six different samples were prepared for analysis. The first sample comprised a urine:TSB mixture that was prepared in the same manner as that described in Example 1. […] The tube was loosely fitted with a screw cap, and held stationary at 37° C. overnight to grow the bacteria. […] The fifth sample comprising urine:TSB:Proteus mirabilis (facultatively grown) was prepared in the same manner as that described in Example 1.

[2] = tested on: Proteus mirabilis (ATCC 29906); assay: Ammonia production by facultatively grown Proteus mirabilis in urine:TSB (ammonia probe)
Protocol: as §1
Upon completion of the respective incubation periods of the samples, optical density measurements of each sample were taken as described above and ammonia production of the growth solutions was measured using an ammonia combination probe (Beckman, Fullerton, Calif.) by record mV using an Orion pH meter (Orion, Boston, Mass.). Orion ammonia standards (Orion) were used to calibrate the instrument.
as §2

[3] = Table 7, 10% (w/v) mannitol, facultative

Compound	optical density (bacterial cell growth) (Proteus mirabilis; 0.0097% in urine:TSB)	optical density (bacterial cell growth) (Proteus mirabilis; 0.0195% in urine:TSB)	optical density (bacterial cell growth) (Proteus mirabilis; 0.0391% in urine:TSB)	optical density (bacterial cell growth) (Proteus mirabilis; 0.0785% in urine:TSB)	optical density (bacterial cell growth) (Proteus mirabilis; 0.156% in urine:TSB)	optical density (bacterial cell growth) (Proteus mirabilis; 0.313% in urine:TSB)	optical density (bacterial cell growth) (Proteus mirabilis; 0.625% in urine:TSB)	optical density (bacterial cell growth) (Proteus mirabilis; 1.25% in urine:TSB)	optical density (bacterial cell growth) (Proteus mirabilis; 2.5% in urine:TSB)	optical density (bacterial cell growth) (Proteus mirabilis; 5% in urine:TSB)	optical density (bacterial cell growth) (Proteus mirabilis; 10% in urine:TSB)	effect on cell growth (Proteus mirabilis; at elevate concentrations)	effect on cell growth (Proteus mirabilis; at low concentrations)	Bacterial Yields [1]	Ammonia Produced (n = 3) [2, 3]	Ammonia/Cell [2, 3]	impact on the production of ammonia in the bacteria ([2]; mannitol in the absence of hydrogen peroxide, 10% (w/v))
mannitol peroxide [24 Hr.]	0.99	0.98	0.99	0.97	0.97	0.97	0.96	0.95	0.93	0.88	0.80						
mannitol peroxide [4.5 Hr.]	0.97	0.98	0.99	0.99	0.98	0.99	0.93	0.99	0.97	0.87	0.04						
OC[C@@H](O)[C@@H](O)[C@H](O)[C@H](O)CO [Mannitol, mannitol, reference compound]	0.98	0.98	0.97	0.97	0.92	0.92	0.98	1.02	0.99	0.89	0.87	little, if any, effect on cell growth	no effect on cell growth	6.91E+8 CFU/mL	621.6 ± 1.8 ppm	83.8 ppm/10E8CFU	does not significantly impact the production of ammonia
mannitol peroxide [3 Hr.]	0.98	0.94	0.94	0.97	0.99	0.83	0.99	0.04	0.03	0.03	0.03						
